Active and inactive are the calls of the source. The rule behind the calls is not given here.
How the values were obtained:
[1] = Cytotoxicity against human ECA109 cells assessed as decrease in cell proliferation after 48 hrs by MTT assay; assay type: functional, cell-based; conditions: ECa-109, 48 h
[2] = Cytotoxicity against human HeLa cells assessed as decrease in cell proliferation after 48 hrs by MTT assay; assay type: functional, cell-based
[3] = Cytotoxicity against HEEC assessed as decrease in cell proliferation after 48 hrs by MTT assay; assay type: toxicity; conditions: human, HEEC cells
[4] = target: T1, DNA topoisomerase 1 (Homo sapiens) (UniProt P11387); assay: Inhibition of DNA topoisomerase-1 (unknown origin)-mediated supercoiled pBR322 DNA relaxation at 25 uM after 30 mins by agarose gel electrophoresis
T1 sequence (whole entry): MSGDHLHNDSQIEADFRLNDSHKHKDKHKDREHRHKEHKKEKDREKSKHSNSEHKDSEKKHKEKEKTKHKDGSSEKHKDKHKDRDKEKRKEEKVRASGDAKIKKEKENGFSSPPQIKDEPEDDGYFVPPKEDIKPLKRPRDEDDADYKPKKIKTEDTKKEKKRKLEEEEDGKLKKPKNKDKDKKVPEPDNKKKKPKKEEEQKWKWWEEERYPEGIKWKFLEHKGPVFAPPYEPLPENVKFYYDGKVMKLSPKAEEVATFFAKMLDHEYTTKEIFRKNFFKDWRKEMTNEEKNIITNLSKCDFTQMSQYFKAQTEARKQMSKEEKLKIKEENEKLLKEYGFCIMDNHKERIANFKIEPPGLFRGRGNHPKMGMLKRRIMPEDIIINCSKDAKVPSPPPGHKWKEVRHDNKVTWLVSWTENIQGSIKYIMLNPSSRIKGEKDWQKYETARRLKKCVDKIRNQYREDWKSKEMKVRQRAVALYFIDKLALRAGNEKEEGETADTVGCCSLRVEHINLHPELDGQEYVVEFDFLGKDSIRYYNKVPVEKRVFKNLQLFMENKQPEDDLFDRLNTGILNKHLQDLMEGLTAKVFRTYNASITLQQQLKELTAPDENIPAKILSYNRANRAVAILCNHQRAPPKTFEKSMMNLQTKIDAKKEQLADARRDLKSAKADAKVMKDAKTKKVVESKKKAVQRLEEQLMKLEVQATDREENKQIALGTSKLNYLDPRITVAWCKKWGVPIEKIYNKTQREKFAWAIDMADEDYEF

[5] = target: T1, DNA topoisomerase 1 (Homo sapiens); assay: Inhibition of DNA topoisomerase-1 (unknown origin)-mediated supercoiled pBR322 DNA relaxation at 100 uM after 30 mins by agarose gel electrophoresis
[6] = target: T1, DNA topoisomerase 1 (Homo sapiens); assay: Inhibition of DNA topoisomerase-1 (unknown origin)-mediated supercoiled pBR322 DNA relaxation at 5 uM after 30 mins by agarose gel electrophoresis
[7] = test system: HeLa; assay: Induction of apoptosis in human HeLa cells assessed as chromatin condensation at IC50 after 48 hrs by Hoechst 33342 staining-based fluorescence microscopic method; assay type: functional, cell-based
[8] = test system: HeLa; assay: Induction of apoptosis in human HeLa cells assessed as chromatin fragmentation at IC50 after 48 hrs by Hoechst 33342 staining-based fluorescence microscopic method; assay type: functional, cell-based

Structure (SMILES)	IC50 [1] [µM]	IC50 [2] [µM]	IC50 at 48 h [3] [µM]	inhibition [4]	inhibition [5]	inhibition [6]	Activity [7]	Activity [8]
O=C1C(O)=C(C(c2ccc([N+](=O)[O-])cc2)c2c[nH]c3ccc(Br)cc23)C(=O)c2ccccc21 (stereo not given)	16.9	14.1	45.2	–	–	–	–	–
O=C1C(O)=C(C(c2cccc([N+](=O)[O-])c2)c2c(-c3ccccc3)[nH]c3ccccc23)C(=O)c2ccccc21 (stereo not given)	5.83	12.5	13.4	Active	–	–	–	–
CC[C@@]1(O)C(=O)OCc2c1cc1n(c2=O)Cc2cc3ccccc3nc2-1 [CAMPTOTHECIN]	9.52	11.4	17.7	–	–	–	–	–
O=C1C(O)=C(C(c2ccc([N+](=O)[O-])cc2)c2c[nH]c3ccccc23)C(=O)c2ccccc21 (stereo not given)	60.9	14.8	> 200	–	–	–	–	–
O=C1C(O)=C(C(c2ccc(F)cc2)c2c[nH]c3ccccc23)C(=O)c2ccccc21 (stereo not given)	28.1	15.8	65.2	–	–	–	–	–
COc1ccc(C(C2=C(O)C(=O)c3ccccc3C2=O)c2c[nH]c3ccccc23)cc1Br (stereo not given)	11.8	7.32	25.2	Active	–	–	–	–
O=C1C(O)=C(C(c2cccs2)c2c[nH]c3ccccc23)C(=O)c2ccccc21 (stereo not given)	12.1	12.4	31.2	–	–	–	–	–
O=C1C(O)=C(C(c2cccc([N+](=O)[O-])c2)c2c[nH]c3ccccc23)C(=O)c2ccccc21 (stereo not given)	36.1	24.9	91.2	–	–	–	–	–
O=C1C(O)=C(C(c2ccc(Cl)cc2)c2c[nH]c3ccccc23)C(=O)c2ccccc21 (stereo not given)	45.8	37	102	–	–	–	–	–
COc1cc(C(C2=C(O)C(=O)c3ccccc3C2=O)c2c[nH]c3ccc(Br)cc23)cc(OC)c1OC (stereo not given)	13	9.71	36.3	–	Active	–	–	–
CC(C)=CCC1=C(O)C(=O)c2ccccc2C1=O [LAPACHOL]	12.6	20.4	20.2	–	–	–	–	–
COc1cccc(C(C2=C(O)C(=O)c3ccccc3C2=O)c2c[nH]c3ccccc23)c1 (stereo not given)	40	25.6	110	–	–	–	–	–
O=C1C(O)=C(C(c2ccc([N+](=O)[O-])cc2)c2c(-c3ccccc3)[nH]c3ccccc23)C(=O)c2ccccc21 (stereo not given)	5.08	6.77	14.2	–	–	Active	Active	Active
Cc1[nH]c2ccccc2c1C(C1=C(O)C(=O)c2ccccc2C1=O)c1ccc([N+](=O)[O-])cc1 (stereo not given)	6	4.57	15.1	Active	–	–	Active	Active
Cc1[nH]c2ccccc2c1C(C1=C(O)C(=O)c2ccccc2C1=O)c1ccc(Cl)cc1 (stereo not given)	14.3	8.03	40.2	–	–	–	–	–
COc1ccccc1C(C1=C(O)C(=O)c2ccccc2C1=O)c1c[nH]c2ccccc12 (stereo not given)	> 200	128	> 200	–	–	–	–	–
O=C1C(O)=C(C(c2ccccc2)c2c(-c3ccccc3)[nH]c3ccccc23)C(=O)c2ccccc21 (stereo not given)	5.18	18.8	26.4	–	–	–	–	–
